{"source": "patent US9572820B2", "about": "“Methods of treating autophagy-associated disorders and related pharmaceutical compositions, diagnostics, screening techniques and kits” (priority 2011, dated 2017)", "key": {"[1]": {"tested_on": "pro-IL-1β", "test": "Expression of pro-IL-1β in BMMs", "format": "cell-based, murine", "conditions": "cells treated with bafilomycin A1 or CA-074 Me", "description": "To induce pro-IL-1β expression, cells were pretreated overnight with 100 ng/ml LPS (Sigma). Inflammasome was induced with […] nigericin (Sigma) for 1 h or with […] Alum (Thermoscientific) for 1 h or with […] silica crystals (MIN-U-SIL-15, US Silica) for 1 h or with […] Amyloid-b peptide (Ab; American Peptide Company) fibrils prepared as described (Moore et al, 2002). […] Starvation and other treatments (except for macrophage priming with LPS done in advance) were carried out concurrently (i.e., initiated at the same time).\nFor all conditions, cell-free supernatants were assayed by immunoblotting after TCA precipitation for mouse IL-1β p17 (R&D), caspase-1 p10 (Santa Cruz Biotechnology), HMGB1 (Abcam) and Cathepsin B (R&D) or by ELISA for mouse IL-1β (R&D), IL-18 (MBL), and HMGB1 (IBL). Immunofluorescence confocal microscopy was carried out using a Zeiss LSM 510 Meta microscope (laser wavelengths 488, 543, and 633 nm). Antibodies against endogenous proteins IL-1β (Abcam), Sec6 (Shu C Hsu, Rutgers University, NJ, USA), Cathepsin B (R&D), Rab8a (Abcam), GORASP1 (Novus), GORASP2 (ProteinTech Group), GM130 (BD), LC3 (MBL) and GFP (Abcam; for BMMs from GFP-LC3 knock-in transgenic mice) were used for indirect immunofluorescence analysis. […]"}, "[2]": {"tested_on": "caspase 1 p20", "test": "Caspase-1 accumulation in BMM by Western blot", "format": "cell-based, murine", "conditions": "Atg5fl/fl LysM-Cre− BMM, EBSS", "description": "(A) Confocal microcopy analysis of caspase-1 colocalization relative to LC3 in GFP-LC3 expressing BMM induced for autophagy by starvation (EBSS) in the presence of bafilomycin A1 for 90 minutes. Scale bar, 5 μM; Arrowheads and insets, LC3+ caspase-l+ positive profiles (colocalization). (B) Pearson's colocalization coefficient for caspase-1 vs. LC3 and IL-1α vs. LC3. (C) Caspase-1 accumulation in Atg5^fl/fl LysM-Cre− or Atg5^fl/fl LysM-Cre+ BMM induced for autophagy in EBSS with or without bafilomycin A1 (BafA1) and subjected to Western blot analysis. (D) IL-1α (culture supernatant ELISA) released from Atg5fl/fl LysM-Cre+ and Atg5fl/fl LysM-Cre− BMM incubated overnight with 100 ng/ml LPS and exposed for 1 h to inflammasome agonist silica (250 μg/ml) in EBSS. Data, means±SE, n≧3; **p<0.01 (t test).\nCells were washed with PBS and lysed with RIPA buffer containing protease inhibitor cocktail (Roche). Cells extracts were analyzed by standard immunoblotting techniques with antibodies to ASC (Enzo Life Science, AL177), procaspase-1 and active caspase-1 (P20) (Cell Signaling, 2225), GFP (Abeam), calpain I (Cell Signaling), p62 (Abeam) and actin (Sigma). Proteins were resolved on a 12% SDS-polyacrylamide gels and transferred to nitrocellulose membranes. The membrane was blocked for 1 h in 5% nonfat dried milk in PBS/Tween 20 (0.1%) and probed with primary antibody overnight at 4° C. […]"}}}
{"smiles": "CO/C1=C\\C(C)=C\\[C@@H](C)[C@@H](O)[C@@H](C)C/C(C)=C/C=C/[C@H](OC)[C@@H]([C@@H](C)[C@@H](O)[C@H](C)[C@@]2(O)C[C@@H](O)[C@H](C)[C@@H](C(C)C)O2)OC1=O", "note": "[bafilomycin A1]", "values": [{"measurement": "expression of pro-IL-1β", "setting": "[1]", "result": "No differences"}, {"measurement": "levels of caspase 1 p20", "setting": "[2]", "result": "abnormally higher levels"}]}
